Measurements from patent US9617244B2, “Antibacterial quinoline derivatives” (JANSSEN PHARMACEUTICA NV, priority 2012, dated 2017).
≈ marks a conversion by molar mass, not a printed value.

How the values were obtained:
[1] = test system: Mycobacterium smegmatis (ATCC607); experiment: In-vitro anti-bacterial activity against strain M. Smegmatis ATCC607; assay type: cell-based; conditions: 90% inhibitory concentration for bacterial growth, Alamar Blue fluorescence; for IC90 MSM 607: 48 hours; for IC90: Mycolicibacterium smegmatis, ATCC607, 48 h, read-out: IC90 MSM 607
Method in brief: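 Serial five-fold compound dilutions in BSA-supplemented wells, inoculated with ~250 CFU/well in Mueller-Hinton broth, incubated 48 h at 37 °C, 5% CO2. Growth read by Alamar Blue fluorescence (ex 530/em 590 nm); IC90 in μg/ml.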

[2] = test system: Staphylococcus aureus (ATCC29213); experiment: In-vitro anti-bacterial activity, microtitre plate assay, IC90 determination (non-mycobacterial strains); assay type: cell-based; conditions: 90% inhibitory concentration for bacterial growth, resazurin fluorescence; for IC90 STA B29213: 24 hours; for IC90: Staphylococcus aureus, ATCC29213, 24 h, read-out: IC90 STA B29213
Method in brief: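 Inoculum of about 100 TCID50 (10–60 CFU/well) in Mueller-Hinton broth, serial five-fold compound dilutions, 24 h at 37 °C in air. Growth read by resazurin fluorescence (ex 530/em 590 nm); IC90 in μg/ml as 90% growth inhibition.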

| Compound | IC90 MSM 607 [1] [mg/L] | IC90 STA B29213 [2] [mg/L] | IC90 [1] [mg/L] | IC90 [2] [mg/L] |
| --- | --- | --- | --- | --- |
| COc1nc2ccc(Cl)cc2cc1C(c1ccc(Cl)cc1)C1(O)CCNC(c2ccccc2)C1 (centres unmarked) [Compound 405] | 2.63 (≈ 5.33 µM) | 5.26 (≈ 10.7 µM) | – | – |
| COc1nc2ccc(F)cc2cc1C(c1ccc(SC)cc1)C1(O)CCNC(c2ccc(F)cc2C)C1 (centres unmarked) [Compound 407] | 1.17 (≈ 2.25 µM) | 1.65 (≈ 3.17 µM) | – | – |
| COc1ccc2nc(OC)c(C(c3ccccc3)C3(O)CCNC(Cc4ccccc4)C3)cc2c1 (centres unmarked) [Compound 408] | – | – | > 19.2 | > 19.2 |
| COc1nc2ccc(Cl)cc2cc1C(c1ccc(Cl)cc1)C1(O)CCNCC1c1ccccc1 (centres unmarked) [Compound 409] | 6.36 (≈ 12.9 µM) | 2.01 (≈ 4.07 µM) | – | – |
| COc1nc2ccc(Cl)cc2cc1C(c1ccc(Cl)cc1)C1(O)CCNCC1c1ccccc1 (centres unmarked) [Compound 410] | 7.73 (≈ 15.7 µM) | 12.25 (≈ 24.8 µM) | – | – |
| COc1nc2ccc(Cl)cc2cc1C(c1ccc(Cl)cc1)C1(O)CCNCC1c1ccccc1 (centres unmarked) [Compound 411] | 6.50 (≈ 13.2 µM) | 4.10 (≈ 8.31 µM) | – | – |
| COc1nc2ccc(Cl)cc2cc1C(c1ccc(Cl)cc1)C1(O)CCNCC1c1ccccc1 (centres unmarked) [Compound 412] | 2.02 (≈ 4.09 µM) | 4.02 (≈ 8.15 µM) | – | – |
| COc1nc2ccccc2cc1C(c1ccccc1)C1(O)CCNC(c2ccccc2)C1 (centres unmarked) [Compound 413] | – | – | 18.2 (≈ 43 µM) | 18.2 (≈ 43 µM) |
| COc1nc2ccccc2cc1C(c1ccccc1)C1(O)CCNC(c2ccccc2)C1 (centres unmarked) [Compound 414] | 18.39 (≈ 43.3 µM) | 18.39 (≈ 43.3 µM) | – | – |
| COc1nc2ccccc2cc1C(c1ccccc1)C1(O)CCNC(c2ccccc2)C1 (centres unmarked) [Compound 415] | >15.47 | 15.47 (≈ 36.4 µM) | – | – |
| COc1nc2ccccc2cc1C(c1ccccc1)C1(O)CCNC(c2ccc(F)cc2C)C1 (centres unmarked) [Compound 416] | 9.25 (≈ 20.3 µM) | 9.25 (≈ 20.3 µM) | – | – |
| COc1nc2ccc(F)cc2cc1C(c1ccc(S(C)(=O)=O)cc1)C1(O)CCNC(c2ccc(F)cc2C)C1 (centres unmarked) [Compound 418] | 17.67 (≈ 32 µM) | >17.6721 | – | – |
| COc1nc2ccc(Cl)cc2cc1C(c1ccc(Cl)cc1)C1(O)CCNCC1C (centres unmarked) [Compound 420] | 5.43 (≈ 12.6 µM) | – | – | 5.43 (≈ 12.6 µM) |
| COc1nc2ccc(Cl)cc2cc1C(c1ccc(Cl)cc1)C1(O)CCNCC1C (centres unmarked) [Compound 421] | 5.43 (≈ 12.6 µM) | 5.43 (≈ 12.6 µM) | – | – |
| COc1nc2ccc(Cl)cc2cc1C(c1ccc(Cl)cc1)C1(O)CCNCC1C (centres unmarked) [Compound 422] | 8.61 (≈ 20 µM) | 7.67 (≈ 17.8 µM) | – | – |
| COc1nc2ccc(Br)cc2cc1C(c1cccnc1)C1(O)CCNC(Cc2ccccc2)C1 (centres unmarked) [Compound 427] | – | – | > 16.1 | > 16.1 |
| COc1nc2ccc(Br)cc2cc1C(c1cccnc1)C1(O)CCNC(Cc2ccccc2)C1 (centres unmarked) [Compound 428] | 10.66 (≈ 20.6 µM) | 15.06 (≈ 29 µM) | – | – |
| COc1nc2ccc(Br)cc2cc1C(n1cccn1)C1(O)CCNC(Cc2ccccc2)C1 (centres unmarked) [Compound 429] | – | – | 3.87 (≈ 7.63 µM) | 7.72 (≈ 15.2 µM) |
| COc1nc2ccc(Cl)cc2cc1C(c1ccc(Cl)cc1)C1(O)CCNC(c2ccc3ccccc3c2)C1 (centres unmarked) [Compound 430] | 3.39 (≈ 6.24 µM) | 3.39 (≈ 6.24 µM) | – | – |
| COc1nc2ccc(Cl)cc2cc1C(c1ccc(Cl)cc1)C1(O)CCNC(c2ccc3ccccc3c2)C1 (centres unmarked) [Compound 431] | 7.66 (≈ 14.1 µM) | 8.60 (≈ 15.8 µM) | – | – |
| COc1nc2ccc(Cl)cc2cc1C(c1ccc(Cl)cc1)C1(O)CCNC(c2ccc3ccccc3c2)C1 (centres unmarked) [Compound 432] | 5.24 (≈ 9.64 µM) | 7.41 (≈ 13.6 µM) | – | – |
| COc1nc2ccc(Cl)cc2cc1C(c1ccc(Cl)cc1)C1(O)CCNC(c2ccc3ccccc3c2)C1 (centres unmarked) [Compound 442] | 3.60 (≈ 6.62 µM) | 11.37 (≈ 20.9 µM) | – | – |
| O=c1[nH]c2ccc(Cl)cc2cc1C(c1ccc(Cl)cc1)C1(O)CCNCC1F (centres unmarked) [Compound 457] | – | – | 5.76 (≈ 13.7 µM) | 11.5 (≈ 27.3 µM) |
| O=c1[nH]c2ccc(Cl)cc2cc1C(c1ccc(Cl)cc1)C1(O)CCNCC1F (centres unmarked) [Compound 458] | 11.50 (≈ 27.3 µM) | 11.50 (≈ 27.3 µM) | – | – |
| COc1nc2ccc(Cl)cc2cc1C(c1ccc(Cl)cc1)C1(O)CCNC(Cc2cccnc2)C1 (centres unmarked) [Compound 468] | 3.21 (≈ 6.31 µM) | 3.21 (≈ 6.31 µM) | – | – |
| COc1nc2ccc(Cl)cc2cc1C(c1ccc(Cl)cc1)C1(O)CCNC(CNc2cccnc2)C1 (centres unmarked) [Compound 469] | – | – | 4.16 (≈ 7.95 µM) | 8.3 (≈ 15.9 µM) |
| COc1nc2ccc(Cl)cc2cc1C(c1ccc(Cl)cc1)C1(O)CCNC(CNc2cccnc2)C1 (centres unmarked) [Compound 470] | 3.08 (≈ 5.88 µM) | 5.23 (≈ 9.99 µM) | – | – |
| COc1nc2ccc(Cl)cc2cc1C(c1ccc(Cl)cc1)C1(O)CCNC(c2cccnc2)C1 (centres unmarked) [Compound 471] | – | – | 2.91 (≈ 5.89 µM) | 4.94 (≈ 9.99 µM) |
